Measured values taken from patent publication US9708336B2, “Metallo-beta-lactamase inhibitors” (priority 2014, dated 2017).
Like-named read-outs stand apart in the source and are kept apart here.

Key:
[1] = biological target: NDM-1 (Klebsiella pneumoniae, UniProt C7C422); experiment: biochemical; assay type: biochemical; conditions: read-out: NDM-1 IC50
[2] = biological target: IMP-1 (Serratia marcescens, UniProt P52699); experiment: biochemical; assay type: biochemical
[3] = biological target: VIM-1 (Pseudomonas aeruginosa (strain ATCC 15692 / DSM 22644 / CIP 104116 / JCM 14847 / LMG 12228 / 1C / PRS 101 / PAO1), UniProt A0A0F7KYQ8); experiment: Enzyme activity: determination of IC50, fluorescence assay with CCF2-FA substrate (VIM-1); assay type: biochemical
[4] = system: Escherichia coli expressing NDM-1 (CLB30016); experiment: Antibiotic potentiation activity: synergistic concentration (MITC95) with imipenem, OD600 growth; assay type: cell-based
How it was run: (§1)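 Spectrophotometric growth readings were taken following 22–24 h at 35 °C. Before that, organisms in 1.1× CAMHB were mixed with imipenem, used at 4 μg/ml in assay, and test compound.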

[5] = system: Klebsiella pneumoniae expressing VIM-1 (IHMA599644); experiment: as above; assay type: cell-based
How it was run: as §1

[6] = system: Serratia marcescens expressing IMP-1 (CL5741); experiment: as above; assay type: cell-based
How it was run: as §1

[7] = fluorescence assay with CCF2-FA substrate
[8] = fluorescence assay with CCF2-FA substrate, read-out: IMP-1 IC50
[9] = VIM-1 IC50, fluorescence assay with CCF2-FA substrate
[10] = CLB30016 (NDM-1), 95% inhibition of bacterial growth
[11] = IHMA599644 (VIM-1), 95% inhibition of bacterial growth
[12] = CL5741 (IMP-1), 95% inhibition of bacterial growth
[13] = fluorescence assay with CCF2-FA substrate, read-out: VIM-1 IC50
[14] = NDM-1 enzyme, CCF2-FA fluorescence assay
[15] = IMP-1 enzyme, CCF2-FA fluorescence assay, read-out: IMP-1 IC50
[16] = VIM-1 enzyme, CCF2-FA fluorescence assay, read-out: VIM-1 IC50
[17] = Escherichia coli expressing NDM-1 (CLB30016), 95% growth inhibition
[18] = Klebsiella pneumoniae expressing VIM-1 (IHMA599644), 95% growth inhibition
[19] = Serratia marcescens expressing IMP-1 (CL5741), 95% growth inhibition
[20] = NDM-1 enzyme, CCF2-FA substrate
[21] = IMP-1 enzyme, CCF2-FA substrate, read-out: IMP-1 IC50
[22] = VIM-1 enzyme, CCF2-FA substrate, read-out: VIM-1 IC50
[23] = (CLB30016, NDM-1), 95% growth inhibition
[24] = Klebsiella pneumoniae IHMA599644 (VIM-1), 95% growth inhibition
[25] = Serratia marcescens CL5741 (IMP-1), 95% growth inhibition
[26] = concentration giving 95% inhibition of bacterial growth
[27] = VIM-1 IC50, VIM-1 enzyme, CCF2-FA substrate

Sequence of NDM-1 (C7C422 whole entry, looked up, species assumed): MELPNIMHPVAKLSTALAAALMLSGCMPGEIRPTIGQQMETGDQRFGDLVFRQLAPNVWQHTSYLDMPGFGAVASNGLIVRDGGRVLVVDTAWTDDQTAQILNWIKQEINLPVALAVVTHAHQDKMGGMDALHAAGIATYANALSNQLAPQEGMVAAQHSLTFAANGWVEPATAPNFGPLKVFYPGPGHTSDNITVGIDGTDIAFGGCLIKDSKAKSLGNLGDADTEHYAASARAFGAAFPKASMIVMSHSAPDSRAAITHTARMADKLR
Sequence of IMP-1 (P52699 whole entry, looked up): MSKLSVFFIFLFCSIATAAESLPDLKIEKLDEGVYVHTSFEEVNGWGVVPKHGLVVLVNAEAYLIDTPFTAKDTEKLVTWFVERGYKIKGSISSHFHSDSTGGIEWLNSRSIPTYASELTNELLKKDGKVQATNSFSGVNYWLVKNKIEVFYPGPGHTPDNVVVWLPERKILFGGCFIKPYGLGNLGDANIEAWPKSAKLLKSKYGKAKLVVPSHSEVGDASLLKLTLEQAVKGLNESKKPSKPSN

Structure (SMILES) | IC50 [1, 20] [nM] | IC50 [2, 21] [nM] | IC50 [3, 22] [nM] | Escherichia coli MITC95 [4, 23] [µM] | Klebsiella pneumoniae MITC95 [5, 24] [µM] | Serratia marcescens MITC95 [6, 25] [µM] | further results
N=C(N)N1CCC2(CC1)CCN(c1ccc(C(F)(F)F)c(S(N)(=O)=O)c1-c1nnn[nH]1)CC2 [Example 822, 9-[3-sulfamoyl-2-(1H-tetrazol-5-yl)-4-(trifluoromethyl)phenyl]-3,9-diazaspiro[5.5]undecane-3-carboxamidine] | – | – | – | – | – | – | IC50 [1, 7]: 1.44 nM; IC50 [2, 8]: 2.25 nM; IC50 [3, 9]: 0.195 nM; Escherichia coli MITC95 [4, 10]: 0.6406 µM; Klebsiella pneumoniae MITC95 [5, 11]: 1.086 µM; Serratia marcescens MITC95 [6, 12]: 0.0938 µM
NS(=O)(=O)c1c(C(F)(F)F)ccc(-c2ccc(C3CCN(C4CCNCC4)CC3)cc2)c1-c1nnn[nH]1 [Example 785, 4′-(1,4′-bipiperidin-4-yl)-2-(1H-tetrazol-5-yl)-4-(trifluoromethyl)biphenyl-3-sulfonamide] | – | – | – | – | – | – | IC50 [1, 7]: 4.21 nM; IC50 [2, 8]: 1.09 nM; IC50 [3, 13]: 12.2 nM; Escherichia coli MITC95 [4, 10]: 1.563 µM; Klebsiella pneumoniae MITC95 [5, 11]: 25 µM; Serratia marcescens MITC95 [6, 12]: 3.125 µM
NS(=O)(=O)c1cccc(-c2ccc(NCCO)nc2)c1-c1nn[nH]n1 [Example 426, 3-(6-((2-hydroxyethyl)amino)pyridin-3-yl)-2-(2H-tetrazol-5-yl)benzenesulfonamide] | – | – | – | – | – | – | IC50 [1, 14]: 9.28 nM; IC50 [2, 15]: 353 nM; IC50 [3, 16]: 260 nM; Escherichia coli MITC95 [4, 17]: 0.4063 µM; Klebsiella pneumoniae MITC95 [5, 18]: 25 µM; Serratia marcescens MITC95 [6, 19]: 9.375 µM
NS(=O)(=O)c1c(C(F)(F)F)ccc(-c2cccc(N3CCCC(O)C3)c2)c1-c1nnn[nH]1 (stereo not drawn) [Example 739, 3′-(3-hydroxypiperidin-1-yl)-2-(1H-tetrazol-5-yl)-4-(trifluoromethyl)biphenyl-3-sulfonamide] | 3.84 | 6.82 | 2.77 | 25 | >200 | 25 | –
Nc1nnc(C2CCN(c3ccnc(S(N)(=O)=O)c3-c3nnn[nH]3)CC2)s1 [Example 216, 4-[4-(5-amino-1,3,4-thiadiazol-2-yl)piperidin-1-yl]-3-(1H-tetrazol-5-yl)pyridine-2-sulfonamide] | – | – | – | – | – | – | IC50 [1, 7]: 40.4 nM; IC50 [2, 8]: 456 nM; IC50 [3, 9]: 96.7 nM; Escherichia coli expressing NDM-1 (CLB 30016) MITC95 [4, 26]: 1.172 µM; Klebsiella pneumoniae expressing VIM-1 (IHMA 599644) MITC95 [5, 26]: 18.75 µM; Serratia marcescens expressing IMP-1 (CL5741) MITC95 [6, 26]: 12.5 µM
CN(CCN1CCCC1)c1ccc(-c2cccc(S(N)(=O)=O)c2-c2nnn[nH]2)cn1 [Example 629, 3-[6-[methyl(2-pyrrolidin-1-ylethyl)amino]-3-pyridyl]-2-(1H-tetrazol-5-yl)benzenesulfonamide] | 43.6 | 799 | 668 | 4.688 | 100 | 25 | –
Nc1nc2cc(-c3ccc(CC4CNC4)c(S(N)(=O)=O)c3-c3nn[nH]n3)ccc2[nH]1 [Example 611, 3-(2-amino-3H-benzo[d]imidazol-5-yl)-6-(azetidin-3-ylmethyl)-2-(2H-tetrazol-5-yl)benzenesulfonamide] | 17.7 | 344 | 20.1 | 0.3906 | 1.563 | 12.5 | –
NS(=O)(=O)c1c(C2CC2)ccc(-c2cccc3ncccc23)c1-c1nn[nH]n1 [Example 529, 6-Cyclopropyl-3-(quinolin-5-yl)-2-(2H-tetrazol-5-yl)benzenesulfonamide] | 2.2 | 6.3 | 0.991 | 3.906 | 9.375 | 0.7813 | –
Nc1ccc(-c2ccc(C[C@H]3CC[C@@H](N)CC3)c(S(N)(=O)=O)c2-c2nnn[nH]2)cn1 [Example 574, 6-(((1s,4s)-4-aminocyclohexyl)methyl)-3-(6-aminopyridin-3-yl)-2-(2H-tetrazol-5-yl)benzenesulfonamide] | 1.5 | 35.9 | 7.94 | 0.3906 | 3.125 | 3.125 | –
NS(=O)(=O)c1c(C(F)(F)F)ccc(N2CC[C@H]3NCCO[C@@H]3C2)c1-c1nnn[nH]1 [Example 773, 3-[(4aR,8aR)-octahydro-6H-pyrido[3,4-b][1,4]oxazin-6-yl]-2-(1H-tetrazol-5-yl)-6-(trifluoromethyl) benzenesulfonamide] | – | – | – | – | – | – | IC50 [1, 7]: 31.8 nM; IC50 [2, 8]: 17.2 nM; IC50 [3, 13]: 1.11 nM; Escherichia coli MITC95 [4, 10]: 6.25 µM; Klebsiella pneumoniae MITC95 [5, 11]: 3.125 µM; Serratia marcescens MITC95 [6, 12]: 6.25 µM
NS(=O)(=O)c1c(CC[C@H]2CC[C@H](N)CC2)ccc(-c2ccc(C3CNC3)cc2)c1-c1nnn[nH]1 [Example 599, 4-(2-((1r,4s)-4-aminocyclohexyl)ethyl)-4′-(azetidin-3-yl)-2-(1H-tetrazol-5-yl)-[1,1′-biphenyl]-3-sulfonamide] | 2.12 | 6.43 | – | 1.563 | 3.125 | 3.125 | IC50 [3, 27]: 5.33 nM
NC[C@H]1CC[C@@H](Cc2ccc(-c3ccc(C4CNC4)cc3)c(-c3nnn[nH]3)c2S(N)(=O)=O)CC1 [Example 602, 4-(((1s,4s)-4-(aminomethyl)cyclohexyl)methyl)-4′-(azetidin-3-yl)-2-(1H-tetrazol-5-yl)-[1,1′-biphenyl]-3-sulfonamide] | 3.95 | 21 | – | 1.563 | 1.563 | 3.125 | IC50 [3, 27]: 2.47 nM
NCC1CN(C2CCN(c3ccc(C(F)(F)F)c(S(N)(=O)=O)c3-c3nnn[nH]3)CC2)C1 [Example 762, 3-{4-[3-(aminomethyl)azetidin-1-yl]piperidin-1-yl}-2-(1H-tetrazol-5-yl)-6-(trifluoromethyl) benzenesulfonamide] | – | – | – | – | – | – | IC50 [1, 7]: 73.2 nM; IC50 [2, 8]: 123 nM; IC50 [3, 13]: 14.2 nM; Escherichia coli MITC95 [4, 10]: 3.125 µM; Klebsiella pneumoniae MITC95 [5, 11]: 6.25 µM; Serratia marcescens MITC95 [6, 12]: 6.25 µM
NS(=O)(=O)c1cccc(-c2ccc(C3(O)CCNC3)cc2)c1-c1nn[nH]n1 (stereo not drawn) [Example 284, 4′-(3-hydroxypyrrolidin-3-yl)-2-(2H-tetrazol-5-yl)-[1,1′-biphenyl]-3-sulfonamide] | – | – | – | – | – | – | IC50 [1, 14]: 12.7 nM; IC50 [2, 15]: 102 nM; IC50 [3, 16]: 55.5 nM; Escherichia coli MITC95 [4, 17]: 0.7813 µM; Klebsiella pneumoniae MITC95 [5, 18]: 4.688 µM; Serratia marcescens MITC95 [6, 19]: 1.563 µM
NS(=O)(=O)c1c(C(F)(F)F)ccc([C@H]2CC[C@H](NC3CC[C@@H]4CNCC[C@H]4C3)CC2)c1-c1nnn[nH]1 (stereo partly drawn) [Example 684, 3-{4-[(4aS,8aS)-decahydroisoquinolin-6-ylamino]cyclohexyl}-2-(1H-tetrazol-5-yl)-6-(trifluoromethyl)benzene sulfonamide] | 38.6 | 75.7 | 10.8 | 3.125 | 12.5 | 6.25 | –
NC[C@H]1CC[C@@H](c2ccc(C(F)(F)F)c(S(N)(=O)=O)c2-c2nnn[nH]2)CC1 [Example 500, 3-(cis 4-(Aminomethyl)cyclohexyl)-2-(1H-tetrazol-5-yl)-6-(trifluoromethyl)benzenesulfonamide] | 3.52 | – | 12.2 | 2.344 | 31.25 | 1.563 | IC50 [2]: 9.86 nM
Nc1nc(-c2ccc(-c3ccc(C(F)(F)F)c(S(N)(=O)=O)c3-c3nnn[nH]3)cc2)cs1 [Example 732, 4′-(2-amino-1,3-thiaozl-4-yl)-2-(1H-tetrazol-5-yl)-4-(trifluoromethyl)biphenyl-3-sulfonamide] | 0.534 | 0.384 | 0.69 | 0.7813 | 25 | 3.125 | –
N[C@@H]1CCCN(c2ccc(-c3ccc(C(F)(F)F)c(S(N)(=O)=O)c3-c3nnn[nH]3)cc2)C1 [Example 727, 4′-[(3R)-3-aminopiperidin-1-yl]-2-(1H-tetrazol-5-yl)-4-(trifluoromethyl)biphenyl-3-sulfonamide] | 2.13 | 1.97 | 0.914 | 3.125 | 25 | 3.125 | –
